Data reported in the supplement of paper PMC10307832.

What was measured:
Experiment in all cases: relative viability (nuclei count vs DMSO), 5 days (fraction); higher = more cells survive
[1] = compound: C[C@]1(c2nc3c(C(N)=O)cccc3[nH]2)CCCN1 [Veliparib] + COc1cccc2cc(-c3nc([C@H]4CC[C@H](C(=O)O)CC4)n4ncnc(N)c34)[nH]c12 [OSI-027] (partner 0.5 µM)
Method in brief: (§1)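 Lung cancer cell lines, seeded in 1536-well plates, were treated the following day by pin tool with a single drug or with five library-drug doses (not always all listed) in √10 steps on top of a fixed anchor-drug dose. Cells were fixed and nuclei stained in one step after 5 days, and nuclei were counted. Relative viability is the nuclei count for treated wells divided by that for vehicle wells, reported as medians of duplicate plates.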

[2] = compound: COC1=CC=C(C=C1)CN2C=CC3=C2C=C(C=C3)C(=O)NO + COc1cccc2cc(-c3nc([C@H]4CC[C@H](C(=O)O)CC4)n4ncnc(N)c34)[nH]c12 [OSI-027] (partner 0.5 µM)
Method in brief: as §1

[3] = compound: COC1=CC=C(C=C1)CN2C=CC3=C2C=C(C=C3)C(=O)NO + Nc1ncn([C@H]2C[C@H](O)[C@@H](CO)O2)c(=O)n1 [Decitabine] (partner 2 µM)
Method in brief: as §1

[4] = compound: COC1=CC=C(C=C1)CN2C=CC3=C2C=C(C=C3)C(=O)NO + C[C@@H](Oc1cc(-c2cnn(C3CCNCC3)c2)cnc1N)c1c(Cl)ccc(F)c1Cl [Crizotinib] (partner 1 µM)
Method in brief: as §1

Cell Line	relative viability ([1]; first compound 0.06325 µM)	relative viability ([1]; first compound 0.2 µM)	relative viability ([1]; first compound 0.6325 µM)	relative viability ([1]; first compound 2 µM)	relative viability ([2]; first compound 0.253 µM)	relative viability ([2]; first compound 0.8 µM)	relative viability ([2]; first compound 2.53 µM)	relative viability ([2]; first compound 8 µM)	relative viability ([3]; first compound 0.08 µM)	relative viability ([3]; first compound 0.253 µM)	relative viability ([3]; first compound 0.8 µM)	relative viability ([3]; first compound 2.53 µM)	relative viability ([3]; first compound 8 µM)	relative viability ([4]; first compound 0.08 µM)	relative viability ([4]; first compound 0.253 µM)	relative viability ([4]; first compound 0.8 µM)	relative viability ([4]; first compound 2.53 µM)	relative viability ([4]; first compound 8 µM)	relative viability ([1]; first compound 0.02 µM)	relative viability ([2]; first compound 0.08 µM)
NCI-H1355	0.323	0.448	0.357	0.355	0.409	0.463	0.457	0.38	0.326	0.357	0.347	0.403	0.311	0.913	1.2	1.02	1.12	0.977	–	–
NCI-H2170	0.748	0.741	0.683	0.617	0.725	0.8	0.81	0.609	0.494	0.514	0.459	0.455	0.43	0.938	1.19	1.17	1.26	1.12	0.771	0.708
NCI-H441	0.539	0.553	0.585	0.617	0.709	0.644	0.621	0.459	0.258	0.239	0.258	0.237	0.276	1.25	0.835	0.862	0.787	0.597	0.622	0.715
NCI-H661	0.704	0.743	0.669	0.657	0.78	0.727	0.658	0.625	–	0.591	0.61	0.519	0.44	–	0.814	1.08	1.05	1	0.751	–
NCI-H1666	0.791	0.763	0.806	0.848	0.906	0.873	0.946	0.85	0.639	0.797	0.81	0.659	0.723	1.18	1.08	1.08	0.992	1.03	0.938	0.818
NCI-H2347	0.377	0.473	0.206	0.347	0.433	0.473	0.481	0.402	0.612	0.691	0.681	0.61	0.577	0.666	0.7	0.856	0.672	0.655	0.416	0.479
HCC-366	0.752	0.89	0.838	0.915	1.03	0.978	0.896	0.772	0.231	0.365	0.351	0.337	0.264	–	0.476	0.534	0.413	0.352	0.961	0.486
NCI-H2009	0.645	0.672	0.586	0.672	0.714	0.619	0.618	0.491	0.331	0.352	0.37	0.36	0.365	1.02	0.993	0.995	0.967	1.06	0.63	0.647
NCI-H460	0.63	0.621	0.583	0.632	0.721	0.664	0.607	0.595	0.457	0.461	0.468	0.432	0.43	0.774	0.959	0.846	0.882	0.917	0.677	0.547
NCI-H2085	0.721	0.629	0.713	0.675	0.754	0.746	0.982	0.731	0.561	0.571	0.639	0.593	0.549	0.804	0.944	0.853	0.928	0.926	–	0.888
NCI-H596	0.696	0.779	0.783	0.68	0.779	0.768	0.721	0.598	1.04	1.78	1.15	0.922	1	1.05	0.961	0.963	0.868	1.01	0.805	0.79
HCC-15	0.641	0.7	0.619	0.603	0.715	0.672	0.742	0.529	0.529	0.718	0.742	0.714	0.642	0.616	0.805	0.919	0.787	0.814	–	0.625
NCI-H2405	0.595	0.619	0.654	0.365	0.65	0.638	0.664	0.606	0.516	–	0.791	0.752	0.66	0.649	0.865	0.87	0.925	0.819	0.547	0.633
ABC-1	0.429	0.618	0.493	0.312	0.57	0.484	0.488	0.393	–	1.16	1.21	1.21	0.929	–	1.3	1.17	1.31	1.12	–	–
ChaGo-K-1	0.519	0.513	0.589	0.55	0.623	0.675	0.504	0.378	–	0.502	0.526	0.525	0.488	–	1.24	1.06	1.09	0.926	0.266	–
NCI-H2126	0.608	0.747	0.749	0.679	0.775	0.696	0.797	0.743	0.574	0.535	0.578	0.585	0.621	1.02	1.08	1.04	1.03	1.06	0.647	0.685
NCI-H838	0.328	0.409	0.296	0.372	0.361	0.41	0.395	0.398	0.441	0.455	0.476	0.456	0.505	–	0.911	0.882	0.853	0.829	0.419	–
